Test results published in ChEMBL document CHEMBL3991601, “The target landscape of clinical kinase drugs” (Science, 2017).
Calls of active or inactive are those of the source.

How the values were obtained:
[1] = biological target: Serine/threonine-protein kinase MRCK alpha (Homo sapiens, UniProt Q5VT25)
[2] = biological target: MAP kinase-activated protein kinase 2 (Homo sapiens, UniProt P49137)
[3] = biological target: Cyclin-dependent kinase 4 (Homo sapiens, UniProt P11802)
Aurora kinase B = Aurora kinase B (Homo sapiens, UniProt Q96GD4)
[4] = biological target: T1, Delta(24)-sterol reductase (Homo sapiens, UniProt Q15392)
T1 sequence (Q15392 whole entry): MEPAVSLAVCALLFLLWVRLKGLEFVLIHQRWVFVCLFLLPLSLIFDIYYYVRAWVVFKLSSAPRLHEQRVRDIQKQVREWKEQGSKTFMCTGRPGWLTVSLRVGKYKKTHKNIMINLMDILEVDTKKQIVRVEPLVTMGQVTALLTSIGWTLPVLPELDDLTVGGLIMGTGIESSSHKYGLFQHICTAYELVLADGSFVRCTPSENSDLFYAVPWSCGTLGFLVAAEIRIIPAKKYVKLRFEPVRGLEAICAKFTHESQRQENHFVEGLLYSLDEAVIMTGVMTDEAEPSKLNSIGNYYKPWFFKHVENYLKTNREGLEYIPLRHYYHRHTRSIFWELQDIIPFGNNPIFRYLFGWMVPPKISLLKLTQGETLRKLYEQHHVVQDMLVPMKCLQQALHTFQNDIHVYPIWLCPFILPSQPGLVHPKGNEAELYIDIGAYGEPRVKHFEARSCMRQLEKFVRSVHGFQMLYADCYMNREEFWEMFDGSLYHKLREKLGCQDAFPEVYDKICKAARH

[5] = biological target: T2, Glycogen phosphorylase, brain form (Homo sapiens, UniProt P11216)
T2 sequence (P11216 whole entry): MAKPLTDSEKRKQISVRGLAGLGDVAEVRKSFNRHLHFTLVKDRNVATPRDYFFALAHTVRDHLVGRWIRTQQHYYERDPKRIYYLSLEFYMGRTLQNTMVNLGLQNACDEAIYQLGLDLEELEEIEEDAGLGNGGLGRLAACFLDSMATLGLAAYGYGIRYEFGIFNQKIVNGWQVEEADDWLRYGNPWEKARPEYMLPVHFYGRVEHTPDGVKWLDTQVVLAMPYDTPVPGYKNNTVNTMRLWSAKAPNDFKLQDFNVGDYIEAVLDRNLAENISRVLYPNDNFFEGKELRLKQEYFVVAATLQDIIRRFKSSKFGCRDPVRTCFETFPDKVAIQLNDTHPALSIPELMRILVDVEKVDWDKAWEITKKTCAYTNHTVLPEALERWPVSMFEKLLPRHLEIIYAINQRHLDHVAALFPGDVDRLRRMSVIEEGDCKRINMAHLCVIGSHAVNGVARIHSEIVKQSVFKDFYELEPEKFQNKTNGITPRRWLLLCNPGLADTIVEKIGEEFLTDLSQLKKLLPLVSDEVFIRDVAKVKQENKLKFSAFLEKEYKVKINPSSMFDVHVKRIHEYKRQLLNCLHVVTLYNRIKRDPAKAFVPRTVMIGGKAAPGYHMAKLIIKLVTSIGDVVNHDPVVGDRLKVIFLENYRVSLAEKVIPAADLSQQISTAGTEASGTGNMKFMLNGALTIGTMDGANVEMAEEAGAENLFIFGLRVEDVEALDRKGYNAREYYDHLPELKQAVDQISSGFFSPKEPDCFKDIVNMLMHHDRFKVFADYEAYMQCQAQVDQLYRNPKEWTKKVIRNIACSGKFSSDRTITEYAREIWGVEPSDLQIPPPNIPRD

[6] = biological target: Mitogen-activated protein kinase 7 (Homo sapiens, UniProt Q13164)
[7] = biological target: Dual specificity protein kinase CLK1 (Homo sapiens, UniProt P49759)
[8] = biological target: T3, Long-chain-fatty-acid--CoA ligase 5 (Homo sapiens, UniProt Q9ULC5)
T3 sequence (Q9ULC5 whole entry): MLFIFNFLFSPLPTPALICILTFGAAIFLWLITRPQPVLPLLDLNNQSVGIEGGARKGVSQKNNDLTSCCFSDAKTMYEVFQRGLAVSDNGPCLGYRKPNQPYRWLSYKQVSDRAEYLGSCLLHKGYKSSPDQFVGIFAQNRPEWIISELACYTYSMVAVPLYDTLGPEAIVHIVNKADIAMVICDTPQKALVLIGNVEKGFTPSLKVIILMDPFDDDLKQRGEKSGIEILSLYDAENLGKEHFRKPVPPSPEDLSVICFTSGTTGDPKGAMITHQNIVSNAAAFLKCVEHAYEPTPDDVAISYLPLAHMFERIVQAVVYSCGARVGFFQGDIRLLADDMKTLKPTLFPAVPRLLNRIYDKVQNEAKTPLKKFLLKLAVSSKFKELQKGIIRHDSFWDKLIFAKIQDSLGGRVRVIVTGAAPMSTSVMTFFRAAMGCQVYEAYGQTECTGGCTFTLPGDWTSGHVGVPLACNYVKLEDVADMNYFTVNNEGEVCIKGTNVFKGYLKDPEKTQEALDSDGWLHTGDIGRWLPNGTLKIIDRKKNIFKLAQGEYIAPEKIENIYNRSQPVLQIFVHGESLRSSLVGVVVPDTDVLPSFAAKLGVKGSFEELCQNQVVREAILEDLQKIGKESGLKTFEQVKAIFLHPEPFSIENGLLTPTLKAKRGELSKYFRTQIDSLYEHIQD
Note: in the data inactive means no Kd found up to 30 µM.

Chain of Dual specificity protein kinase CLK1 (P49759 whole entry): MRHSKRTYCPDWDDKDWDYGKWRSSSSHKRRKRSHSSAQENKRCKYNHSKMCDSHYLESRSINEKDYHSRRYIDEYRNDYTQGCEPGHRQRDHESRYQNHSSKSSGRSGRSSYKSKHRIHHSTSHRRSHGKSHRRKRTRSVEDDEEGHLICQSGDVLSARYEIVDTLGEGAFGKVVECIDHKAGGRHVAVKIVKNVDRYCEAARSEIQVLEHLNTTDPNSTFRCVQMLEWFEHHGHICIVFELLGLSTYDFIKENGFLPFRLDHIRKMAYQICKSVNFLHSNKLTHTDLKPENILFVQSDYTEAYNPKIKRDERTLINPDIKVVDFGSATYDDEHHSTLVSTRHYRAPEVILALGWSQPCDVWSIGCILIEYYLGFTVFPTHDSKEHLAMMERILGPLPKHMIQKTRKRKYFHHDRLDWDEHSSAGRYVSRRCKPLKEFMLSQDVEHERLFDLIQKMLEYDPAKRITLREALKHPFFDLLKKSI
Chain of Cyclin-dependent kinase 4 (P11802 whole entry): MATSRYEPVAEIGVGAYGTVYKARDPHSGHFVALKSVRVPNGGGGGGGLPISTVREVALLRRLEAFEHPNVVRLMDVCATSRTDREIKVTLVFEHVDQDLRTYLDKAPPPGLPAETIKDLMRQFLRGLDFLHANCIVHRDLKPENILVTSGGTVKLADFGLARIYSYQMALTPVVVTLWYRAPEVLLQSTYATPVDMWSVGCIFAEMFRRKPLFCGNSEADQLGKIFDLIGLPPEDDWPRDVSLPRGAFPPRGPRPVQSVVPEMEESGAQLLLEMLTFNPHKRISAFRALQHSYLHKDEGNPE
Chain of Aurora kinase B (Q96GD4 whole entry): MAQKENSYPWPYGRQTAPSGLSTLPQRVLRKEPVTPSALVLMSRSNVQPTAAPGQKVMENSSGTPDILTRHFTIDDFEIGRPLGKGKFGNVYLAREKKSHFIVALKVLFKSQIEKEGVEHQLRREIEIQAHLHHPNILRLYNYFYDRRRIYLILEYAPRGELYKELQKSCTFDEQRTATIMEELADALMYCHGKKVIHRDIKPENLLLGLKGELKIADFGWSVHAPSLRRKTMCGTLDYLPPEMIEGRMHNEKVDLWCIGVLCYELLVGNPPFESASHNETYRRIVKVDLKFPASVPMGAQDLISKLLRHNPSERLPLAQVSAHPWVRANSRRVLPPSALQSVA
Chain of Serine/threonine-protein kinase MRCK alpha (Q5VT25 whole entry): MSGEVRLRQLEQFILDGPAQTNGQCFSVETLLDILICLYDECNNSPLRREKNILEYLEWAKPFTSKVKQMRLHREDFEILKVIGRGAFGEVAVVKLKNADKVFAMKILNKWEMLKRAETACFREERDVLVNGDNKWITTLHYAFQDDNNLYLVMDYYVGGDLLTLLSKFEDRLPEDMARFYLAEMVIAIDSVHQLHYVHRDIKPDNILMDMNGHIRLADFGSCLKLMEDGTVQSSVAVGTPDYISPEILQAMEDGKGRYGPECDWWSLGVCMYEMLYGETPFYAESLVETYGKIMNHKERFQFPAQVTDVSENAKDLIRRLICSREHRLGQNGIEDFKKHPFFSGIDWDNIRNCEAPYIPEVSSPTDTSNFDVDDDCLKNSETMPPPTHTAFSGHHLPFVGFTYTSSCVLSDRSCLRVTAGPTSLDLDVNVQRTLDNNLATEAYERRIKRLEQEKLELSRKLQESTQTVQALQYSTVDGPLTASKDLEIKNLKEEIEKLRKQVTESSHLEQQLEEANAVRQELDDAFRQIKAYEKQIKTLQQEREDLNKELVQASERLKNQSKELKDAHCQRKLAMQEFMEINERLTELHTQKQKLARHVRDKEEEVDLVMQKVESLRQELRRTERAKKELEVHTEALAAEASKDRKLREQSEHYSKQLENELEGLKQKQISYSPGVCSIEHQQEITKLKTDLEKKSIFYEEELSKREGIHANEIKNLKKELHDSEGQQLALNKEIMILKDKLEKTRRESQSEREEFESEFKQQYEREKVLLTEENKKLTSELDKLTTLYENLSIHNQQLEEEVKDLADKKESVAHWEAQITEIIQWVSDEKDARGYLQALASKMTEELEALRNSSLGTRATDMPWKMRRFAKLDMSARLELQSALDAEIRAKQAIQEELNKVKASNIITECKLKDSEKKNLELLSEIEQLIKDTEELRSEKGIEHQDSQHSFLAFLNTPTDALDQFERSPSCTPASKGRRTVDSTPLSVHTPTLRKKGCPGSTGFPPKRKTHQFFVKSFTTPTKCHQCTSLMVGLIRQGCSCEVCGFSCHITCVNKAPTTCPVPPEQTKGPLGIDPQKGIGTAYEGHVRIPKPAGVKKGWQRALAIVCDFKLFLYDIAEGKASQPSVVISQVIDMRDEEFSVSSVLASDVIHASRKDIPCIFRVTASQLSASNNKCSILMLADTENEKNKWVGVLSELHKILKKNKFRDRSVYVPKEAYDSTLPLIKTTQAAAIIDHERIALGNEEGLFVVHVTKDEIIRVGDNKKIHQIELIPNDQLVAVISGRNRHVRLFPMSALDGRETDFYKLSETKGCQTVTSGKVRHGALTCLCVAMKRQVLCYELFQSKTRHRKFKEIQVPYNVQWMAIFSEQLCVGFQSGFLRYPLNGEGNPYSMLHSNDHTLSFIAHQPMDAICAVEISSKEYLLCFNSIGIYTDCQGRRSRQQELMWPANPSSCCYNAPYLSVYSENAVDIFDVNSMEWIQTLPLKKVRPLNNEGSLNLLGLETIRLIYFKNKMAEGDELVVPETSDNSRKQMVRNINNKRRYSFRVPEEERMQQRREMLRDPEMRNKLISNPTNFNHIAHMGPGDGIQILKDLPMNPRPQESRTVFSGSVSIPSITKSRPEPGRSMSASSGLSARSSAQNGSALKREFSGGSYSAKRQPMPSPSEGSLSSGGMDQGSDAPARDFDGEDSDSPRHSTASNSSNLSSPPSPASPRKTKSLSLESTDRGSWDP
Chain of Mitogen-activated protein kinase 7 (Q13164 whole entry): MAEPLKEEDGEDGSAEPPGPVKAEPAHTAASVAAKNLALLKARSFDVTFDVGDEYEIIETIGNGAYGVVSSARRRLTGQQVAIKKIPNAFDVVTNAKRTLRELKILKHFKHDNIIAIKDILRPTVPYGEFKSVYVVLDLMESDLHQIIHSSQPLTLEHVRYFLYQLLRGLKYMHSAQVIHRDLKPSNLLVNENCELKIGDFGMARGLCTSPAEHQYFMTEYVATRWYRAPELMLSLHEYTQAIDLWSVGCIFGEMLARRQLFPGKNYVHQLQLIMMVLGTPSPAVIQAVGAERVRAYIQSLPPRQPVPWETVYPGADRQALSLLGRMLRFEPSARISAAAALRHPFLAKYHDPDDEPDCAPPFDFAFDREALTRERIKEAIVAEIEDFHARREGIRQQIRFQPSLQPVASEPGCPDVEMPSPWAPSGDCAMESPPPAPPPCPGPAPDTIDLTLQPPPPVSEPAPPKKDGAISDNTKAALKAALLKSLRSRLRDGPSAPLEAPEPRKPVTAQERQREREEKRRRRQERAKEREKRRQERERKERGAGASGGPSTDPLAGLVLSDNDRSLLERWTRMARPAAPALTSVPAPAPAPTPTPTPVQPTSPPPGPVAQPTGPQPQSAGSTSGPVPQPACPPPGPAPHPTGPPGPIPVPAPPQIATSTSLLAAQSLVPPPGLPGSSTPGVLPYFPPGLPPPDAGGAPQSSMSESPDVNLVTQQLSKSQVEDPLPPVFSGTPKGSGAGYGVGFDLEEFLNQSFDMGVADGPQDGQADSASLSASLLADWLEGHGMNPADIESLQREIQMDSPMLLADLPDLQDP
Chain of MAP kinase-activated protein kinase 2 (P49137 whole entry): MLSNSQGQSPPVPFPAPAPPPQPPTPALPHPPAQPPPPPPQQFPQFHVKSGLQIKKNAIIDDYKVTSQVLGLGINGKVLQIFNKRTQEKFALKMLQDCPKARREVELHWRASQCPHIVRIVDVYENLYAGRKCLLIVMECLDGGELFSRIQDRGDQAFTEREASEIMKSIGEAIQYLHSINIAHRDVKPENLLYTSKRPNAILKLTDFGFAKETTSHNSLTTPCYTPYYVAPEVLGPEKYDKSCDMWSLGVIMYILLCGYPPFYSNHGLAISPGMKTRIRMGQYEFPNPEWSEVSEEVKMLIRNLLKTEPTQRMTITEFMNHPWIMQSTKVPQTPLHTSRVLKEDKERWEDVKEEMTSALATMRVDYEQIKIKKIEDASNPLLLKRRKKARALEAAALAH

Row | SMILES | Kd [1] | Kd [2] | Kd [3] | Kd (Aurora kinase B) | Kd [4] | Kd [5] | Kd [6] | Kd [7] | Kd [8]
1 | O=c1[nH]c([C@@H]2CCCN2)nc2c1oc1ccc(Cl)cc12 | > 30 µM (inactive) | > 30 µM (inactive) | > 30 µM (inactive) | > 30 µM (inactive) | > 30 µM (inactive) | > 30 µM (inactive) | – | – | –
2 | CCN1CCN(Cc2ccc(Nc3ncc(F)c(-c4cc(F)c5nc(C)n(C(C)C)c5c4)n3)nc2)CC1 [ABEMACICLIB] | > 30 µM (inactive) | > 30 µM (inactive) | – | > 30 µM (inactive) | > 30 µM (inactive) | > 30 µM (inactive) | > 30 µM (inactive) | 0.007 µM (active) | –
3 | C=CCn1c(=O)c2cnc(Nc3ccc(N4CCN(C)CC4)cc3)nc2n1-c1cccc(C(C)(C)O)n1 [ADAVOSERTIB] | > 30 µM (inactive) | > 30 µM (inactive) | > 30 µM (inactive) | – | > 30 µM (inactive) | > 30 µM (inactive) | > 30 µM (inactive) | > 30 µM (inactive) | > 30 µM (inactive)
4 | CN(C)C/C=C/C(=O)Nc1cc2c(Nc3ccc(F)c(Cl)c3)ncnc2cc1O[C@H]1CCOC1 [AFATINIB] | – | – | – | – | > 30 µM (inactive) | > 30 µM (inactive) | – | – | > 30 µM (inactive)
5 | CCc1cc2c(cc1N1CCC(N3CCOCC3)CC1)C(C)(C)c1[nH]c3cc(C#N)ccc3c1C2=O [ALECTINIB] | > 30 µM (inactive) | > 30 µM (inactive) | > 30 µM (inactive) | > 30 µM (inactive) | > 30 µM (inactive) | > 30 µM (inactive) | > 30 µM (inactive) | 29.9 µM (active) | –
6 | Cc1cc(Nc2nc(N[C@@H](C)c3ncc(F)cn3)ncc2Cl)n[nH]1 [AZD-1480] | > 30 µM (inactive) | > 30 µM (inactive) | > 30 µM (inactive) | 1.56 µM (active) | > 30 µM (inactive) | > 30 µM (inactive) | > 30 µM (inactive) | > 30 µM (inactive) | –
7 | COc1ccc(-c2ccc3ncc4c(c3c2)n(-c2ccc(N3CCNCC3)c(C(F)(F)F)c2)c(=O)n4C)cn1 [BGT-226 FREE BASE] | > 30 µM (inactive) | > 30 µM (inactive) | > 30 µM (inactive) | > 30 µM (inactive) | > 30 µM (inactive) | > 30 µM (inactive) | > 30 µM (inactive) | 0.246 µM (active) | –
8 | C[C@@]1(C(=O)Nc2ccc(F)nc2)CCCN1c1nc(Nc2cc(C3CC3)n[nH]2)c2cccn2n1 [BMS-754807] | – | – | – | – | > 30 µM (inactive) | > 30 µM (inactive) | – | – | –
9 | COc1cc2c(Oc3ccc4[nH]c(C)cc4c3F)ncnc2cc1OCCCN1CCCC1 [CEDIRANIB] | – | – | – | – | > 30 µM (inactive) | > 30 µM (inactive) | – | – | 0.008 µM
10 | O=S(=O)(c1cccc2cnccc12)N1CCCNCC1 [FASUDIL] | – | – | > 30 µM (inactive) | – | > 30 µM (inactive) | > 30 µM (inactive) | > 30 µM (inactive) | 0.152 µM | > 30 µM (inactive)
11 | C[C@]1(O)C[C@@H](c2nc(-c3ccc4ccc(-c5ccccc5)nc4c3)c3c(N)nccn32)C1 [LINSITINIB] | – | – | > 30 µM (inactive) | – | > 30 µM (inactive) | > 30 µM (inactive) | > 30 µM (inactive) | > 30 µM (inactive) | –
12 | Cc1ccc(C(=O)Nc2ccc(Oc3cc4cnn(C)c4cc3-c3cn[nH]c3)c(F)c2)c(=O)n1-c1ccc(F)cc1 [MERESTINIB] | > 30 µM (inactive) | > 30 µM (inactive) | > 30 µM (inactive) | > 30 µM (inactive) | > 30 µM (inactive) | > 30 µM (inactive) | > 30 µM (inactive) | > 30 µM (inactive) | –
13 | O=C(NOC[C@H](O)CO)c1ccc(F)c(F)c1Nc1ccc(I)cc1F [MIRDAMETINIB] | > 30 µM (inactive) | > 30 µM (inactive) | > 30 µM (inactive) | > 30 µM (inactive) | > 30 µM (inactive) | > 30 µM (inactive) | > 30 µM (inactive) | > 30 µM (inactive) | –
14 | CC1(C)CNc2cc(NC(=O)c3cccnc3NCc3ccncc3)ccc21 [MOTESANIB] | – | – | – | – | > 30 µM (inactive) | > 30 µM (inactive) | – | – | > 30 µM (inactive)
15 | C=CC(=O)Nc1cc(Nc2nccc(-c3cn(C)c4ccccc34)n2)c(OC)cc1N(C)CCN(C)C [OSIMERTINIB] | > 30 µM (inactive) | > 30 µM (inactive) | > 30 µM (inactive) | > 30 µM (inactive) | > 30 µM (inactive) | > 30 µM (inactive) | > 30 µM (inactive) | > 30 µM (inactive) | –
16 | CC(C)CC(=O)Nc1[nH]nc2c1CN(C(=O)C1CCN(C)CC1)C2(C)C [PHA-793887] | > 30 µM (inactive) | > 30 µM (inactive) | > 30 µM (inactive) | > 30 µM (inactive) | > 30 µM (inactive) | > 30 µM (inactive) | > 30 µM (inactive) | 2.18 µM (active) | –
17 | C=CC(=O)Nc1cccc(Nc2nc(Nc3ccc(N4CCN(C(C)=O)CC4)cc3OC)ncc2C(F)(F)F)c1 [ROCILETINIB] | > 30 µM (inactive) | > 30 µM (inactive) | > 30 µM (inactive) | > 30 µM (inactive) | > 30 µM (inactive) | > 30 µM (inactive) | > 30 µM (inactive) | 0.651 µM (active) | –
18 | Cn1cnc2c(F)c(Nc3ccc(Br)cc3Cl)c(C(=O)NOCCO)cc21 [SELUMETINIB] | – | – | – | – | > 30 µM (inactive) | > 30 µM (inactive) | – | – | > 30 µM (inactive)
19 | O=C(O)c1ccc2c(c1)nc(Nc1cccc(Cl)c1)c1ccncc12 [SILMITASERTIB] | > 30 µM (inactive) | 5.3 µM (active) | > 30 µM (inactive) | – | > 30 µM (inactive) | > 30 µM (inactive) | > 30 µM (inactive) | – | –
20 | C=CCN(/C=C1/C(=O)O[C@H](COC)[C@@]2(C)C1=C(O)C(=O)C1=C2[C@H](OC(C)=O)C[C@]2(C)C(=O)CC[C@@H]12)CC=C [SONOLISIB] | > 30 µM (inactive) | > 30 µM (inactive) | > 30 µM (inactive) | > 30 µM (inactive) | > 30 µM (inactive) | > 30 µM (inactive) | > 30 µM (inactive) | > 30 µM (inactive) | –
21 | Cn1c(=O)c(F)c(Nc2ccc(I)cc2F)c2c(=O)n(C[C@@H](O)CO)cnc21 [TAK-733] | > 30 µM (inactive) | > 30 µM (inactive) | > 30 µM (inactive) | > 30 µM (inactive) | > 30 µM (inactive) | > 30 µM (inactive) | > 30 µM (inactive) | > 30 µM (inactive) | –
22 | COc1cc2c(N3CCN(C(=O)Nc4ccc(OC(C)C)cc4)CC3)ncnc2cc1OCCCN1CCCCC1 [TANDUTINIB] | – | – | – | – | > 30 µM (inactive) | > 30 µM (inactive) | – | – | > 30 µM (inactive)
